Source: patent publication US5277897A, “In vivo enhancement of cellular accumulation of lipophilic cationic organometallic compounds by reduction of intramembrane potential” (Brigham and Women's Hospital, priority 1992, dated 1994)

System: cultured chick heart cells
Test: Effect of TPB on the Ko-dependence of Tc-MIBI influx rates; plasma membrane potential by Goldman flux equation (FIG. 6)
Type: cell-based
Procedure: FIG. 6. Effect of TPB on the Ko -dependence of Tc-MIBI influx rates. A) Preparations were preincubated in MEBSS containing the indicated Ko (K-MSA substitution for NaCl) for 1 minute in the absence (.quadrature.) and for 5 minutes in the presence ( ) of valinomycin (1 ug/ml) prior to determination of 2-min Tc-MIBI uptakes in buffer of the same composition. B) Same conditions as A with a 5-minute pre-incubation period in buffers that also contained TPB (10^-5 M) in the absence (o) or presence (·) of valinomycin. C) Resting membrane potential (Em) as a function of Ko. Em was calculated from the Tc-MIBI influx data shown in A in the presence of valinomycin using the Goldman flux equation (Restrepo, D., et al., J. Gen. Physiol. 92:489-507 (1988)): J/Jo =-x/(1-e^x) where x=Em F/RT and J/Jo is the ratio of Tc-MIBI influx rates at Em and zero membrane potential (Ko =130 mM), respectively. RT/F equals 26 mV at 37° C. The solid lines in A and B have no theoretical significance. The solid line in C represents a linear regression of the data: -Em =-67 log Ko +147mV (r=-0.99). […] Each point is the mean ±SEM of 3 determinations.
Monolayers of spontaneously contractile chick ventricular myocardial cells were obtained from disaggregated 10-day old chick embryo hearts by a slight modification of previously published methods (Horres, C. R., et al., In Pinson, A. (ed.), The Heart Cell in Culture, Boca Raton, CRC Press, pp. 77-108 (1987)). Hearts were trimmed of connective tissue and atria, finely minced and serially exposed to 0.024% (w/v) trypsin in Ca^2+ - and Mg^2+ - free Earle's salt solution for 7 minutes at 37° C. Gentle trituration and agitation on an orbital shaker bath aided disaggregation. Cells released from the first exposure were discarded and cells aspirated from the next four exposures were then added to an equal volume of trypsin deactivating solution consisting of ice-cold culture medium. Cells were centrifuged at 400 g for 10 minutes, resuspended and combined in culture medium, counted with a hemocytometer and diluted to yield a suspension of 5×10^5 cells/ml. 12 ml of suspension were incubated in 100 mm plastic culture dishes containing 7 coverslips (25 mm diameter) placed on the bottom of each dish to serve as substrate for cell growth. Cells were maintained in a humidified atmosphere of 5% CO2 /95% air for 3-4 days yielding a confluent layer of spontaneously contractile myocytes on each coverslip.
Radioactive uptake methods have been described in detail (Piwnica-Worms, D., et al, Circ. (in press). Briefly, coverslips with confluent cells were removed from culture media and pre-equilibrated for 40-60 seconds in MEBSS buffer. Uptake and retention experiments were initiated by immersion of coverslips in 60 mm glass Pyrex dishes containing loading solution consisting of buffer with 0.1-0.6 nM [^99m Tc-MIBI] (0.01-0.4 Ci/nmole; 25-100 uCi/ml). Preparations were removed at various times and rinsed three times in 25 ml volumes of ice-cold (2° C.) isotope-free buffer for 8 seconds each to clear extracellular spaces. Preparations and aliquots of the loading buffer and stock solutions were counted in a well-type sodium iodide gamma counter after which cell protein on each coverslip was extracted in 1% sodium dodecylsulfate with 10 mM sodium borate and assayed by the method of Lowry (Lowry, O. H., et al., J. Biol. Chem. 193:265-275 (1951)). Tc-MIBI binding to glass coverslips without cells was used as an estimate of non-specific adhesion to the substrate ([…] obtained with cellular preparations); this value was subtracted from total uptake determinations to derive the cell-associated counts. Use of generator equilibrium equations (Lamson, M. L., et al., i J. Nucl. Med. 16:639-641 (1975)) allowed calculation of absolute moles of Tc-MIBI in solutions and preparations. Results were therefore expressed as fmol cellular Tc-MIBI/mg protein per nM extracellular Tc-MIBI concentration. […]

Q: `[C-]#[N+]CC(C)(C)OC.[C-]#[N+]CC(C)(C)OC.[C-]#[N+]CC(C)(C)OC.[C-]#[N+]CC(C)(C)OC.[C-]#[N+]CC(C)(C)OC.[C-]#[N+]CC(C)(C)OC.[Tc]` [Tc-MIBI, hexakis(methoxyisobutylisonitrile)technetium(I)] was tested. Which “valinomycin sensitivity of Tc-MIBI influx” value (absence of TPB) did it give?
A: Its value is “only modestly valinomycin-sensitive”.

Q: And the “valinomycin sensitivity of Tc-MIBI influx” value (presence of TPB 10^-5 M)?
A: The value was “highly valinomycin-sensitive”.

Q: What about the “Nernstian behavior of Tc-MIBI” value (presence of valinomycin) of the same compound?
A: Its value is “close to ideal Nernstian behavior”.

Q: What about the “correlation coefficient r, Em vs log Ko from Tc-MIBI influx” value (valinomycin 1 ug/ml, no TPB) of the same compound?
A: Its value is -0.99.

Q: What about the “slope of membrane potential vs log Ko from Tc-MIBI influx” value (valinomycin 1 ug/ml, no TPB, Goldman flux equation) of the same compound?
A: Its value is -67 mV/decade.

Q: What about the “regression -Em = -67 log Ko + 147 mV: intercept” value (valinomycin, FIG. 6C) of the same compound?
A: The value was 147 mV.

Q: And the “regression -Em = -67 log Ko + 147 mV: slope” value (valinomycin, FIG. 6C)?
A: Its value is -67.
